Assay results reported in patent US9725465B2, “Biaryl acetamide compounds and methods of use thereof” (Ambit Biosciences Corporation, priority 2013, dated 2017).

Columns and labels:
FLT3 kinase = FLT3 kinase (Homo sapiens (Human), UniProt P36888); test: Competition binding assay (Kd), FLT3; conditions: competition binding assay
KIT kinase = KIT kinase (Homo sapiens (Human), UniProt P10721); test: Competition binding assay (Kd), KIT; conditions: competition binding assay
Procedure, shortened: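 Kd derived from eleven-point threefold serial dilutions of compound competing with bead-bound ligand for kinase; bound kinase eluted and measured by quantitative PCR. Kinase supplied either as a T7 phage fusion or expressed in HEK-293 cells with a DNA tag; DMSO served as control.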

FLT3-ITD = FLT3-ITD (Homo sapiens (Human), UniProt P36888, INS600HVDFREYEYD); test: pFLT3 MSD assay, Ba/F3 FLT3-ITD; assay type: cell-based; conditions: Ba/F3 FLT3-ITD cells, 2 hours, read-out: BaF3-FLT3-ITD pFlt3 IC50
Sequence of FLT3-ITD (P36888 other isoform, or with tags, fused parts or gaps limits assumed, stated change not applied): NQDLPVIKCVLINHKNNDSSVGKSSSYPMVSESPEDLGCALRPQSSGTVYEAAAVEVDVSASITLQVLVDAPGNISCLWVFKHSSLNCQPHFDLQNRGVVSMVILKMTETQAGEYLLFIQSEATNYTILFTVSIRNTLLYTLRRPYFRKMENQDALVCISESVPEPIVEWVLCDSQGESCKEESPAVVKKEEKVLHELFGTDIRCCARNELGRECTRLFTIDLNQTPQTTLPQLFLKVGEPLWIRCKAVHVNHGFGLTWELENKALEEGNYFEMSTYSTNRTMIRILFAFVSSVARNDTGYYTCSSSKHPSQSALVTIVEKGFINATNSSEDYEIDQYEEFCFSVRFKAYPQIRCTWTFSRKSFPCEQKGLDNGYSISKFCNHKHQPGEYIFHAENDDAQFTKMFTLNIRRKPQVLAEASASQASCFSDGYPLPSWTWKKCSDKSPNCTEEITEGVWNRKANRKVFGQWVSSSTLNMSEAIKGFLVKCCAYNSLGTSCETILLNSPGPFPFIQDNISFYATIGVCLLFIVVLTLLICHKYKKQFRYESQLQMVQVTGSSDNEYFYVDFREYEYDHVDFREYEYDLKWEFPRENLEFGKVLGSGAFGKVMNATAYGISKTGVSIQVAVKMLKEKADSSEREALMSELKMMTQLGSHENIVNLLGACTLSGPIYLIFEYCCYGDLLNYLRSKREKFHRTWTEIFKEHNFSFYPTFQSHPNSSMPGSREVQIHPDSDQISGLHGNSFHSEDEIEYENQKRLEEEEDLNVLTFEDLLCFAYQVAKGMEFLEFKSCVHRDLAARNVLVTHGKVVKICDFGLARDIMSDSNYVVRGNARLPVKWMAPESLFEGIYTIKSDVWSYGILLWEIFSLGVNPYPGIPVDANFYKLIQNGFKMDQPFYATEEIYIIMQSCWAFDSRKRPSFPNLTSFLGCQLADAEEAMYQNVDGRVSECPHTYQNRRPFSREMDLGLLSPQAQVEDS

Sequence of FLT3 kinase (P36888 27-993): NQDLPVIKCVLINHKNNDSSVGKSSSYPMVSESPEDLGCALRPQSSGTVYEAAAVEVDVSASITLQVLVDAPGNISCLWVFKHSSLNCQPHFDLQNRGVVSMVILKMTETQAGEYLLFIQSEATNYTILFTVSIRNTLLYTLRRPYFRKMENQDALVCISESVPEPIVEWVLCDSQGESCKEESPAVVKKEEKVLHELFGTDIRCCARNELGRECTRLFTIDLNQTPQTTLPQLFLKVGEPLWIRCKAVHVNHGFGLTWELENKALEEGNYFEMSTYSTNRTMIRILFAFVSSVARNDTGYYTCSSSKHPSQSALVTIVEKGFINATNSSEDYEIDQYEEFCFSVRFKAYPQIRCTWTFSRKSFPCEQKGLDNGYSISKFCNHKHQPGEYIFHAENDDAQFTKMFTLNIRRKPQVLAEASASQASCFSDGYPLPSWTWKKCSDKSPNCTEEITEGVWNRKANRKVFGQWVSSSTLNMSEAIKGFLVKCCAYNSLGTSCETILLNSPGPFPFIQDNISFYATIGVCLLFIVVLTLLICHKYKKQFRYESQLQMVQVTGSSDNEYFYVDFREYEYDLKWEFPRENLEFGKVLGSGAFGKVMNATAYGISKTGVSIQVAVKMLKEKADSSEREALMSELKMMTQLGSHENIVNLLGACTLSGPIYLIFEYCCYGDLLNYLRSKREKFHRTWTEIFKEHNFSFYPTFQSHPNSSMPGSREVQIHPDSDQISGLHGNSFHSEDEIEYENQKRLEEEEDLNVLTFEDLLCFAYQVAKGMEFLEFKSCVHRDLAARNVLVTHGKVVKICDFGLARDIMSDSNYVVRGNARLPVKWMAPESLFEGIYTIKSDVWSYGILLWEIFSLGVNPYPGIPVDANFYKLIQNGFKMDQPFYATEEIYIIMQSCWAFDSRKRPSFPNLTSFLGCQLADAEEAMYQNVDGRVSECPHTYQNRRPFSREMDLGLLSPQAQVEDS
Sequence of KIT kinase (P10721 26-976): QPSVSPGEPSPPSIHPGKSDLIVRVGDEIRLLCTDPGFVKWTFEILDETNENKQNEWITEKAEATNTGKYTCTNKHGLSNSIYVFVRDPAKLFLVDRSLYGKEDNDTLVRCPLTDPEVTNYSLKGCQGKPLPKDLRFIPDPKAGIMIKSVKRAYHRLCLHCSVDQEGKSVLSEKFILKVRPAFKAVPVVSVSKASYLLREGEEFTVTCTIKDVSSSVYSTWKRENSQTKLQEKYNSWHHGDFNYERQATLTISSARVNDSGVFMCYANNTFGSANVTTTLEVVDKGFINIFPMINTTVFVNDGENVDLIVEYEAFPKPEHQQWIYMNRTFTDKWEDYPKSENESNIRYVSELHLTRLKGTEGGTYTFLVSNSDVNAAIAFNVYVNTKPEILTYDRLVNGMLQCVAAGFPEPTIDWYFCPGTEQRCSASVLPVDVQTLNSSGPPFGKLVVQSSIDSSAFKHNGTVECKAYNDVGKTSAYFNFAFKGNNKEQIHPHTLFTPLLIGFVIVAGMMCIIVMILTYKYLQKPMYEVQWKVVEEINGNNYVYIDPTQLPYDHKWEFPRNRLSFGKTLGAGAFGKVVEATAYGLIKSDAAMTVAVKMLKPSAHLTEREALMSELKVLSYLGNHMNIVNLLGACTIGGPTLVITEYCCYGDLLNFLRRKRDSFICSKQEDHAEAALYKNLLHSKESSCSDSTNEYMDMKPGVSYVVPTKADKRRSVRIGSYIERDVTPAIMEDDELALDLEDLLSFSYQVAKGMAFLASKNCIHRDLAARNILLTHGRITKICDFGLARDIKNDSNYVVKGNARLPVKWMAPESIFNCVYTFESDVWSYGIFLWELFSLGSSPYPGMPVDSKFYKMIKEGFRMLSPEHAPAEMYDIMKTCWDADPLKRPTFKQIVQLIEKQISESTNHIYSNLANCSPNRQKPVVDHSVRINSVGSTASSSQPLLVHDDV

Row | Structure (SMILES) | Kd (FLT3 kinase) | Kd (KIT kinase) | IC50 (FLT3-ITD)
1 | COc1cc2cc(-c3ccc(CC(=O)Nc4cc(C(C)(C)C(F)(F)F)on4)c(F)c3)cnc2cc1OC [Example 129, 2-[4-(6,7-dimethoxy-3-quinolyl)-2-fluoro-phenyl]-N-[5-(2,2,2-trifluoro-1,1-dimethyl-ethyl)isoxazol-3-yl]acetamide] | < 5 nM | < 5 nM | < 10 nM
2 | CS(=O)(=O)CCNC(=O)c1cc2cc(-c3ccc(CC(=O)Nc4cc(C5(C(F)(F)F)CC5)on4)c(F)c3)cnc2[nH]1 [Example 107, 5-[3-fluoro-4-[2-oxo-2-[[5-[1-(trifluoromethyl)cyclo-propyl]isoxazol-3-yl]amino]ethyl]phenyl]-N-(2-methylsulfonylethyl)-1H-pyrrolo[2,3-b]pyridine-2-carboxamide] | < 5 nM | < 5 nM | < 10 nM
3 | COc1cc2nc(-c3ccc(CC(=O)Nc4cc(C5(C(F)(F)F)CC5)on4)c(F)c3)cnc2cc1OCCN=[N+]=[N-] [Example 166, 2-[4-[6-(2-azidoethoxy)-7-methoxy-quinoxalin-2-yl]-2-fluoro-phenyl]-N-[5-[1-(trifluoromethyl)cyclo-propyl]isoxazol-3-yl]acetamide] | < 5 nM | < 5 nM | < 10 nM
4 | CN(C)NC(=O)c1cc2cc(-c3ccc(CC(=O)Nc4cc(C5(C(F)(F)F)CC5)on4)c(F)c3)cnc2[nH]1 [Example 117, 2-[4-[2-(dimethylaminocarbamoyl)-1H-pyrrolo[2,3-b]pyridin-5-yl]-2-fluoro-phenyl]-N-[5-[1-(trifluoro-methyl)cyclopropyl]isoxazol-3-yl]acetamide] | < 5 nM | < 5 nM | < 10 nM
5 | O=C(Cc1ccc(-c2cnc3cc4c(cc3n2)OCO4)cc1F)Nc1cc(C2(C(F)(F)F)CC2)on1 [Example 119, 2-[4-([1,3]dioxolo[4,5-g]quinoxalin-6-yl)-2-fluoro-phenyl]-N-[5-[1-(trifluoro-methyl)cyclopropyl]isoxazol-3-yl]acetamide] | < 5 nM | < 5 nM | < 10 nM
6 | O=C(Cc1ccc(-c2cnc3[nH]nc(OCC(F)F)c3c2)cc1F)Nc1cc(C2(C(F)(F)F)CC2)on1 [Example 102, 2-[4-[3-(2,2-difluoroethoxy)-1H-pyrazolo[3,4-b]pyridin-5-yl]-2-fluoro-phenyl]-N-[5-[1-(trifluoro-methyl)cyclopropyl]isoxazol-3-yl]acetamide] | < 5 nM | < 5 nM | < 10 nM
7 | COc1cc2ncc(-c3ccc(CC(=O)Nc4cc(C(C)(C)C(F)(F)F)on4)c(F)c3)nc2cc1OCCO [Example 170, 2-[2-fluoro-4-[7-(2-hydroxyethoxy)-6-methoxy-quinoxalin-2-yl]phenyl]-N-[5-(2,2,2-trifluoro-1,1-dimethyl-ethyl)isoxazol-3-yl]acetamide] | < 5 nM | < 5 nM | < 10 nM
8 | COc1cc2nc(-c3ccc(CC(=O)Nc4cc(C(C)(C)C(F)(F)F)on4)c(F)c3)cnc2cc1O [Example 164, 2-[2-fluoro-4-(6-hydroxy-7-methoxy-quinoxalin-2-yl)phenyl]-N-[5-(2,2,2-trifluoro-1,1-dimethyl-ethyl)isoxazol-3-yl]acetamide] | < 5 nM | 5 to 20 nM | < 10 nM
9 | COc1cc2nc(-c3ccc(CC(=O)Nc4cc(C5(C(F)(F)F)CC5)on4)c(F)c3)cnc2cc1OCCOC(C)=O [Example 130, 2-[2-[3-fluoro-4-[2-oxo-2-[[5-[1-(trifluoromethyl)cyclo-propyl]isoxazol-3-yl]amino]ethyl]phenyl]-7-methoxy-quinoxalin-6-yl]oxyethyl acetate] | < 5 nM | < 5 nM | < 10 nM
10 | COc1cc2nc(-c3ccc(CC(=O)Nc4cc(C5(C(F)(F)F)CC5)on4)c(F)c3)cnc2cc1OCCN1CCOCC1 [Example 79, 2-(2-fluoro-4-(7-methoxy-6-(2-morpholinoethoxy)quinoxalin-2-yl)phenyl)-N-(5-(1-(trifluoromethyl)cyclopropyl)isoxazol-3-yl)acetamide] | < 5 nM | < 5 nM | < 10 nM
11 | CN(C)C(=O)COc1cc2ncc(-c3ccc(CC(=O)Nc4cc(C5(C(F)(F)F)CC5)on4)c(F)c3)nc2cc1OCC(=O)N(C)C [Example 154, 2-[4-[6,7-bis[2-(dimethylamino)-2-oxo-ethoxy]quinoxalin-2-yl]-2-fluoro-phenyl]-N-[5-[1-(trifluoromethyl)cyclo-propyl]isoxazol-3-yl]acetamide] | < 5 nM | < 5 nM | < 10 nM
12 | COc1cc2ncc(-c3ccc(CC(=O)Nc4cc(C(C)(C)C)on4)cc3)nc2cc1OC [Example 6, N-(5-(tert-butyl)isoxazol-3-yl)-2-(4-(6,7-dimethoxyquinoxalin-2-yl)phenyl)acetamide] | < 5 nM | < 5 nM | < 10 nM
13 | COc1cc2cc(-c3ccc(CC(=O)Nc4cc(C(C)(C)C(F)(F)F)on4)c(F)c3)cnc2cc1OCCO [Example 91, 2-(2-fluoro-4-(7-(2-hydroxyethoxy)-6-methoxyquinolin-3-yl)phenyl)-N-(5-(1,1,1-trifluoro-2-methylpropan-2-yl)isoxazol-3-yl)acetamide] | < 5 nM | < 5 nM | < 10 nM
14 | CC(C)(C)c1cc(NC(=O)Cc2ccc(-c3cnc4[nH]nc(-n5nccn5)c4c3)cc2)no1 [Example 101, N-(5-tert-butylisoxazol-3-yl)-2-[4-[3-(triazol-2-yl)-1H-pyrazolo[3,4-b]pyridin-5-yl]phenyl]acetamide] | < 5 nM | < 5 nM | < 10 nM

Further lines, results first:

Row | Kd (FLT3 kinase) | Kd (KIT kinase) | IC50 (FLT3-ITD) | Structure (SMILES)
15 | < 5 nM | < 5 nM | < 10 nM | O=C(Cc1ccc(-c2cnc3[nH]c(C(=O)N4CC(O)C4)cc3c2)cc1F)Nc1cc(C2(C(F)(F)F)CC2)on1 [Example 111, 2-[2-fluoro-4-[2-(3-hydroxyazetidine-1-carbonyl)-1H-pyrrolo[2,3-b]pyridin-5-yl]phenyl]-N-[5-[1-(trifluoro-methyl)cyclopropyl]isoxazol-3-yl]acetamide]
16 | > 50 nM | > 50 nM | < 10 nM | COc1cc2nc(-c3ccc(CC(=O)Nc4cc(C5(C(F)(F)F)CC5)on4)c(F)c3)cnc2cc1OCc1ccccc1 [Example 163, 2-[4-(6-benzyloxy-7-methoxy-quinoxalin-2-yl)-2-fluoro-phenyl]-N-[5-[1-(trifluoromethyl)cyclo-propyl]isoxazol-3-yl]acetamide]
17 | < 5 nM | 5 to 20 nM | < 10 nM | COc1cc2ncc(-c3ccc(CC(=O)Nc4cc(C(C)(C)C)nn4-c4ccccc4)c(F)c3)nc2cc1OC [Example 140, N-(5-tert-butyl-2-phenyl-pyrazol-3-yl)-2-[4-(6,7-dimethoxyquinoxalin-2-yl)-2-fluoro-phenyl]acetamide]
18 | < 5 nM | < 5 nM | < 10 nM | O=C(Cc1ccc(-c2cnc3cc4c(cc3n2)OC[C@@H](CO)O4)cc1F)Nc1cc(C2(C(F)(F)F)CC2)on1 [Example 121, 2-[2-fluoro-4-[(2R)-2-(hydroxymethyl)-2,3-dihydro-[1,4]dioxino[2,3-g]quinoxalin-7-yl]phenyl]-N-[5-[1-(trifluoro-methyl)cyclopropyl]isoxazol-3-yl]acetamide]
19 | < 5 nM | 5 to 20 nM | 10 to 20 nM | COc1cc2nc(OC)c(-c3ccc(CC(=O)Nc4cc(C5(C(F)(F)F)CC5)on4)c(F)c3)nc2cc1OC [Example 124, 2-[2-fluoro-4-(3,6,7-trimethoxyquinoxalin-2-yl)phenyl]-N-[5-[1-(trifluoro-methyl)cyclopropyl]isoxazol-3-yl]acetamide]
20 | < 5 nM | < 5 nM | < 10 nM | CC(C)(C)c1cc(NC(=O)Cc2ccc(-c3cnc4[nH]cc(C5(O)COC5)c4c3)cc2)no1 [Example 97, N-(5-tert-butylisoxazol-3-yl)-2-[4-[3-(3-hydroxyoxetan-3-yl)-1H-pyrrolo[2,3-b]pyridin-5-yl]phenyl]acetamide]
21 | < 5 nM | 5 to 20 nM | < 10 nM | COc1cc2ncc(-c3ccc(CC(=O)Nc4cc(C(C)(C)C(F)(F)F)on4)c(F)c3)cc2c(OC)c1OC [Example 115, 2-[2-fluoro-4-(5,6,7-trimethoxy-3-quinolyl)phenyl]-N-[5-(2,2,2-trifluoro-1,1-dimethyl-ethyl)isoxazol-3-yl]acetamide]
22 | < 5 nM | < 5 nM | < 10 nM | O=C(Cc1ccc(-c2cnc3[nH]ccc3n2)cc1)Nc1cc(C2(C(F)(F)F)CC2)on1 [Example 3, 2-(4-(5H-pyrrolo[2,3-b]pyrazin-2-yl)phenyl)-N-(5-(1-(trifluoromethyl)cyclopropyl)isoxazol-3-yl)acetamide]
23 | < 5 nM | < 5 nM | < 10 nM | O=C(Cc1ccc(-c2cnc3[nH]c(CO)cc3c2)cc1F)Nc1cc(C2(C(F)(F)F)CC2)on1 [Example 70, 2-(2-fluoro-4-(2-(hydroxymethyl)-1H-pyrrolo[2,3-b]pyridin-5-yl)phenyl)-N-(5-(1-(trifluoromethyl)cyclopropyl)isoxazol-3-yl)acetamide]
24 | < 5 nM | < 5 nM | < 10 nM | COc1cc2nc(-c3ccc(CC(=O)Nc4cc(C5(C(F)(F)F)CC5)on4)c(F)c3)cnc2cc1OCCN [Example 167, 2-[4-[6-(2-aminoethoxy)-7-methoxy-quinoxalin-2-yl]-2-fluoro-phenyl]-N-[5-[1-(trifluoromethyl)cyclo-propyl]isoxazol-3-yl]acetamide]
25 | < 5 nM | < 5 nM | < 10 nM | CC(O)c1n[nH]c2ncc(-c3ccc(CC(=O)Nc4cc(C(C)(C)C)on4)c(F)c3)cc12 (stereo not drawn) [Example 62, N-(5-(tert-butyl)isoxazol-3-yl)-2-(2-fluoro-4-(3-(1-hydroxyethyl)-1H-pyrazolo[3,4-b]pyridin-5-yl)phenyl)acetamide]
